Experimental data published in patent EP0358766A1, “METHOD OF STERILIZING PLANT ANTHERS” (VSESOJUZNY NAUCHNO-ISSLEDOVATELSKY INST. SELSKOKHOZYAISTV. …, priority 1988, dated 1989).

Columns and labels:
[1] = tested on: tetraploidem Roggen Jubileinaya; assay: Field test of gametocidal activity, tetraploid rye Jubileinaya; assay type: in vivo; settings: period V, 1% aqueous emulsion, 8 kg/ha in 800 l water; for Prozentsatz des Ansetzens Samen bei freier Bestäubung: control = 100
Excerpt: (§1) Die gametozide Aktivität der erfindungsgemäßen Sterilisationsmittel war in Feldversuchen in verschiedenen bodenklimatischen Zonen mit Teilstücken von 10 m^2 Größe in dreibis viermaliger Wiederholung festgestellt. Jedes Sterilisationsmittel wurde mindenstens 5 Jahre lang geprüft.
(§2) Die Entwicklung der Perioden der Organogenese wird zytologisch überwacht. Die Behandlung von Pflanzen mit dem Sterilisationsmittel erfolgt am Anfang der fünften Periode der Organogenese nach Kupermann.
(§3) Mit dem Ährenschieben verwirklicht man die Isolierung von Hauptähren und anderen Stockwerken in Pergametbeuteln. Bei Weizen und Tritikale werden Einzelisolatoren benutzt. Bei Roggen schließt man je 1 Ähre von […] verschiedenen nebeneinander befindlichen Pflanzen unter einen gemeinsamen Isolator ein. Bei Hirse wird jede Rispe getrennt isoliert. Der Sterilitätsprozentsatz (X) für Weizen, Roggen, Tritikale und Hirse wird nach der Formel [formula] ermittelt.
(§4) Die Kornzahl in nicht isolierten Ähren von Kontrollpflanzen wird bedingt für 100 % Ansetzen bei freier Bestäubung angenommen.
(§5) Um zuverlässige Angaben zu erhalten, verwendet man 20 bis 25 Isolatoren je Wiederholung für Weizen und Tritikale, 10 bis 15 Isolatoren jeder Wiederholung für Roggen und Hirse.
(§6) Pflanzen von tetraploidem Roggen Jubileinaya werden in der V. Periode der Organogenese mit einer 1%igen wäßrigen Emulsion von 1,2,3-Tribrompropan, 1,2-Dibrompropan bzw. 1,2-Dibrom-3-chlorpropan behandelt. Die Emulsion enthält 0,5 Masse% C12-C14-Kalziumalkylbenzolsulfonat und 0,01 Masse% Dodezylsulfat. Der Verbrauch an Präparat beträgt 8 kg/ha bei 800 1 Wasserdurchsatz. Die Prüfergebnisse sind in der Tabelle 9 angegeben. Die gleichen Ergebnisse sind bei der Behandlung von tetraploidem Roggen Jubileinaya in der VI. Periode der Organogenese erhalten.

Tritikale PRAG-109 = assay: Field test of gametocidal activity, triticale PRAG-109; assay type: in vivo; settings: period V, 1% aqueous emulsion, 6 kg/ha in 600 l water; for Prozentsatz des Ansetzens von Samen bei freier Bestäubung: control = 100
Excerpt: as §1, §2, §3, §4, §5
Pflanzen von Tritikale PRAG-109 werden in der V.Periode der Organogenese (nach Kupermann) mit einer 1%igen wäßrigen Emulsion von 1,1,1,3-Tetrabromheptan, 1,1,3-Tribromheptan, 1,2,3-Tribrompropan bzw. 1,2-Dibrom-3-chlor- propan behandelt. Die Emulsion enthält 0,5 Masse% C12-C14--Kalziumalkylbenzolsulfonat und 0,01 Masse% Dodezylsulfat. Der Verbrauch an Präparat beträgt 6 kg/ha bei 600 1 Wasserdurchsatz. Als Kontrolle dienen Pflanzen, behandelt mit dem Verdünner ohne Sterilisationsmittel. Die Prüfergebnisse sind in der Tabelle 5 angegeben. Die gleichen Ergebnisse sind bei der Behandlung von Tritikale PRAG-109 in der VI. Periode der Organogenese erhalten.

[2] = tested on: tetraploidem Roggen Ukrainskaya tetra; assay: Field test of gametocidal activity, tetraploid rye Ukrainskaya tetra; assay type: in vivo; settings: period V, 1% aqueous emulsion, 6 kg/ha in 600 l water; for Prozentsatz des Ansetzens von Samen bei freier Bestäubung: control = 100
Excerpt: as §1, §2, §3, §4, §5
Pflanzen von tetraploidem Roggen Ukrainskaya tetra werden in der V.Periode der Organogenese (nach Kupermann) mit einer 1%igen wäßrigen Emulsion von 1,2,3-Tribrompropan, 1,2-Dibrompropan bzw. 1,2-Dibrom-3-chlorpropan behandelt. Die Emulsion enthält 0,5 Masse% C12-C14-Kalzium- alkylbenzolsulfonat und 0,01 Masse% Tetrahydrofuran. Der Verbrauch an Präparat beträgt 6 kg/ha bei 600 1 Wasserdurchsatz. Als Kontrolle dienen Pflanzen, behandelt mit dem Verdünner ohne Sterilisationsmittel. Die Prüfergebnisse sind in der Tabelle 8 angegeben. Die gleichen Ergebnisse sind bei der Behandlung von tetraploidem Roggen Ukrainskaya in der VI. Periode der Organogenese erhalten.

[3] = tested on: tetraploidem Roggen Gibrid 67; assay: Field test of gametocidal activity, tetraploid rye Gibrid 67; assay type: in vivo; settings: period V, 1% aqueous emulsion, 10 kg/ha; for Prozentsatz des Ansetzens von Samen bei freier Bestäubung: control = 100
Excerpt: as §1, §2, §3, §4, §5
as §6, with “Gibrid 67” for “Jubileinaya”, “V.Periode” for “V. Periode”, “l%igen” for “1%igen”, “Dimethylsulfoxid.” for “Dodezylsulfat.”, “10 kg/ha.” for “8 kg/ha bei 800 1 Wasserdurchsatz.”, “10” for “9”

[4] = tested on: diploidem Roggen Gibrid 1864/79; assay: Field test of gametocidal activity, diploid rye Gibrid 1864/79; assay type: in vivo; settings: period V, 1% aqueous emulsion, 6 kg/ha in 600 l water; for Prozentsatz des Ansetzens von Samen bei freier Bestäubung: control = 100
Excerpt: as §1, §2, §3, §4, §5
Pflanzen von diploidem Roggen Gibrid 1864/79 werden in der V. Periode der Organogenese mit einer l%igen wäßrigen Emulsion von 1,2,3-Tribrompropan, 1,2-Dibrompropan, 1,1,1,3--Tetrabromheptan, 1,1,3-Tribromheptan behandelt. Die Emulsion enthält 0,5 Masse% C12-C14-Kalziumalkylbenzolsulfonat und 0,01 Masse% Äthylenglykol. Der Verbrauch an Präparat beträgt 6 kg/ha bei 600 1 Wasserdurchsatz. Die Prüfergebnisse sind in der Tabelle 12 angegeben. Die gleichen Ergebnisse sind bei der Behandlung von diploidem Roggen Gibrid 1864/79 in der VI. Periode der Organogenese erhalten.

[5] = tested on: Sommerweizens Sorte Rodina; assay: Field test of gametocidal activity, spring wheat Rodina; assay type: in vivo, Weizen; settings: period V, 1% aqueous emulsion, 6 kg/ha in 600 l water; for Prozentsatz des Ansetzens von freier Bestäubung: control = 100
Excerpt: as §1, §2, §3, §4, §5
Pflanzen des Sommerweizens Sorte Rodina werden in der V.Periode der Organogenese (nach Kupermann) mit einer l%igen wäßrigen Emulsion von 1,3-Dibrompropan, 1,1,1,3-Tetrabromheptan, 1,1,3-Tribromheptan bzw. 1,2-Dibromheptan behandelt. Die Emulsion enthalt 0,5 Masse% C12-C14 Kalziumalk^ylbenzol- sulfonat und 0,01 Masse% Dodezylsulfat. Der Verbrauch an Präparat beträgt 6 Kg/ha bei 600 1 Wasserdurchsatz. Als Kontrolle dienen Pflanzen, behandelt mit dem Verdünner ohne Sterilisationsmittel.
Die Prüfergebnisse sind in der Tabelle 3 angegeben. Die gleichen Ergebnisse sind bei der Behandlung des Sommerweizens Sorte Rodina in der VI. Periode der Organogenese erhalten.

Row | SMILES | Kornzahl der Ähre bei freier Bestäubung [1] | Kornzahl der Ähre unter Isolator [1] | Prozentsatz der Sterilität [1] | Prozentsatz des Ansetzens Samen bei freier Bestäubung [1] | Kornzahl der Ähre bei freier Bestäubung (Tritikale PRAG-109) | Kornzahl der Ähre im Isolator (Tritikale PRAG-109) | Prozentsatz der Sterilität (Tritikale PRAG-109) | Prozentsatz des Ansetzens von Samen bei freier Bestäubung (Tritikale PRAG-109) | Kornzahl der Ähre bei freier Bestäubung [2] | Kornzahl der Ähre unter Isolator [2] | Prozentsatz der Sterilität [2] | Prozentsatz des Ansetzens von Samen bei freier Bestäubung [2] | Kornzahl der Ähre bei freier Bestäubung [3] | Kornzahl der Ähre im Isolator [3] | Prozentsatz der Sterilität [3] | Prozentsatz des Ansetzens von Samen bei freier Bestäubung [3] | Kornzahl der Ähre bei freier Bestäubung [4] | Kornzahl der Ähre unter Isolator [4] | Prozentsatz der Sterilität [4] | Prozentsatz des Ansetzens von Samen bei freier Bestäubung [4] | other results
1 | BrCC(Br)CBr [Beispiel 4, 1,2,3-Tribrompropan] | 47,6 | 0,1 | 99,8% | 90,3% | 40,5 | 0,2 | 99,5% | 88,4% | 48,6 | 0,0 | 100,0% | 94,2% | 40,6 | 0,6 | 98,6% | 82,0% | 42,1 | 0,0 | 100,0% | 88,0% | 
2 | CC(Br)CBr (centres unmarked) [Beispiel 5, 1,2-Dibrompropan] | 48,1 | 0,0 | 100,0% | 91,2% |  |  |  |  | 47,5 | 0,3 | 99,4% | 92,1% | 42,7 | 0,2 | 99,5% | 86,3% | 46,4 | 0,0 | 100,0% | 97,1% | 
3 | ClCC(Br)CBr (centres unmarked) [Beispiel 7, 1,2-Dibrom-3-chlorpropan] | 50,2 | 0,4 | 99,2% | 95,2% | 42,6 | 1,1 | 97,3% | 93,0% | 45,8 | 0,6 | 98,8% | 88,7% | 45,2 | 0,0 | 100,0% | 91,3% |  |  |  |  | 
4 | CCCCC(Br)CC(Br)(Br)Br (centres unmarked) [Beispiel 9, 1,1,1,3-Tetrabromheptan] |  |  |  |  | 61,8 | 0,0 | 100,0% | 89,6% |  |  |  |  |  |  |  |  | 49,2 | 0,0 | 100,0% | 103,0% | Kornzahl der Ähre bei freier Bestäubung [5]: 35,4; Kornzahl der Ähre im Isolator [5]: 0,0; Prozentsatz der Sterilität [5]: 100,0%; Prozentsatz des Ansetzens von freier Bestäubung [5]: 87,6%
5 | CCCCC(Br)CC(Br)Br (centres unmarked) [Beispiel 10, 1,1,3-Tribromheptan] |  |  |  |  | 59,6 | 0,0 | 100,0% | 86,4% |  |  |  |  |  |  |  |  | 52,6 | 0,0 | 100,0% | 109,8% | Kornzahl der Ähre bei freier Bestäubung [5]: 33,8; Kornzahl der Ähre im Isolator [5]: 0,0; Prozentsatz der Sterilität [5]: 100,0%; Prozentsatz des Ansetzens von freier Bestäubung [5]: 83,7%
6 | CCCCCC(Br)CBr (centres unmarked) [Beispiel 11, 1,2-Dibromheptan] |  |  |  |  |  |  |  |  |  |  |  |  |  |  |  |  |  |  |  |  | Kornzahl der Ähre bei freier Bestäubung [5]: 32,7; Kornzahl der Ähre im Isolator [5]: 0,0; Prozentsatz der Sterilität [5]: 100,0%; Prozentsatz des Ansetzens von freier Bestäubung [5]: 80,9%
